Source: US20070276024A1, “Methods for Treating Diseases and Conditions with Inverse Agonists and for Screening for Agents Acting as Inverse Agonists” (Inverseon , Inc., priority 2003, published 2007)
Entries after “also recorded” stand apart in the source; their conditions may differ. Where two headings read alike, the source gives them in different places.

What was measured:
[1] = cited from earlier work
β-adrenergic receptor = conditions: U.S. Pat. No. 6,284,800; cited from earlier work
[2] = test system: antigen-induced bronchoconstriction; conditions: acute administration; cited from earlier work
asthmatic mice = assay: Airway resistance (Raw) response to methacholine in murine model of asthma; format: in vivo, Balb/cJ mice; conditions: for airway hyperresponsiveness / airway responsiveness to methacholine provocation (airway resistance, Raw): asthmatic mice; for airway hyperresponsiveness: methacholine challenge, chronic treatment 7 days, 20 mg/kg (metoprolol 3× daily s.c.; timolol in chow)
Experimental: Balb/cJ mice aged 6 weeks (Jackson Animal Laboratory, Bar Harbor, Maine) were housed under specific pathogen-free conditions and fed a chicken ovalbumin-free diet. The Animal Research Ethics Boards of both the University of Houston and the Baylor College of Medicine approved all experiments reported here. […] Mice were sensitized with subcutaneous injection of 25 μg of ovalbumin adsorbed to aluminum hydroxide on protocol days 2, 9, and 16. Subsequently, mice were given 50 μL of saline solution containing 25 μg of ovalbumin intranasally, on a daily basis, from protocol days 23 through 27. A group of ovalbumin-sensitized saline-challenged mice serves as controls for systemic sensitization and respiratory challenges with ovalbumin. Prior to intranasal administrations, mice were sedated with halothane vapor.
To examine the effects of duration of β-adrenergic ligand therapy on the phenotype of the murine model of asthma, the experimental drugs were administered either acutely or chronically to different groups of asthmatic mice.
Asthmatic mice on acute therapy were given a single intravenous bolus infusion of either β-adrenergic drug or normal saline on protocol day 28, 15 minutes before airway responsiveness to methacholine was determined. […] […] […] These concentrations were chosen based on those producing therapeutic effects in mice in previously published studies. The non-asthmatic mice were fed normal chow.
On protocol day 28, mice were anesthetized, tracheotomized, and connected to a computer-controlled small animal ventilator (Flexivent, Scientific Respiratory Equipment, Inc., Montreal, Canada). Airway resistance (Raw) was measured using the forced oscillation technique. The cellular composition of bronchoalveolar lavage fluid (BALF) was also determined.
To induce airway constriction, a solution containing 150 μg/mL of acetyl-α-methylcholine chloride (methacholine) (Sigma Chemical, St. Louis, Mo.) was infused intravenously at constant rates using a syringe infusion pump (Raze Scientific Instruments, Stanford, Conn.). […] Each methacholine dose was administered for 3 to 5 minutes, during which data were sampled at 1-minute intervals and then averaged.
The complex input impedance of the respiratory system was computed and the value of the real part of respiratory system impedance at 19.75 Hz was taken to reflect the magnitude of airway resistance (Raw). To examine the degree of airway responsiveness of each animal, the values for Raw as a function of methacholine doses were plotted. The largest value for Raw achieved in response to methacholine stimulation was referred to as Rawpeak. For mice that achieved a plateau in the methacholine dose-Raw response curve, the ED50 was calculated by linear interpolation using the GraphPad Prism4 (GraphPad Software, Inc.). […] The Bonferroni test was used to examine the statistical differences between experimental groups. The effects of acute drug treatments on baseline respiratory system mechanics were assessed using a two-tailed paired t-test. A value of P<0.05 was considered significant.
For these experiments, salbutamol was used for chronic administration at 0.5 mg/kg/day with a minipump and for acute administration at 0.15 mg/kg by i.v. bolus 15 minutes prior to challenge. Alprenolol was used at a high dose of 7200 ppm in chow or at a low dose of 720 ppm in chow. Carvedilol was used at a high dose of 2400 ppm in chow or at a low dose of 720 ppm in chow.
The airway resistance (Raw) is plotted as cm H2O ml^−1 s.

patients with CHF = conditions: cited from earlier work
[3] = cited from earlier work; remark: listed apart in the source
β2-adrenergic receptor = β2-adrenergic receptor (Mus musculus, UniProt P18762); format: in vivo, mice; conditions: for level of the β2-adrenergic receptor: chronic treatment; for Bmax (receptor density) / βmax (receptor density): lung membranes, mean±SEM, n=3-5; for Bmax (receptor density): drug treatment 15 Minutes; for βmax (receptor density): drug treatment 28 Days
Experimental: β2-adrenergic receptor numbers were measured in asthmatic mice as follows. […] Mice were sacrificed and lung membranes were isolated as follows. Frozen lung tissue was homogenized in an ice-cold buffer containing 0.32 M sucrose and 25 mM Tris (pH 7.4) using a polytron (Pro 200, Pro Scientific, Inc.). The homogenate was centrifuged at 1000×g for 10 min at 4° C. The resulting supernatant was centrifuged at 40,000×g for 20 min at 4° C. The pellet was suspended in an ice-cold 25 mM Tris-HCl buffer (pH 7.4) and centrifuged at 40,000'g for 20 min at 4° C. The final pellet was suspended in 200 μL of 25 mM Tris-HCl (pH 7.4); membrane protein concentration was determined by BCA protein assay kit. […] The incubation was done at 37° C. for 2 h and terminated by rapid vacuum filtration through glass fiber filters. The filters were washed three times with 250 μL of cold wash buffer (25 mM Tris-HCl, pH 7.4) and the radioactivity determined in a counter. […] Receptor densities are expressed as femtomoles of sites per milligram of protein. Bmax is determined by nonlinear regression of the saturation binding curves.

[4] = test system: tracheas from asthmatic mice; conditions: asthmatic mice chronically treated; cited from earlier work
[5] = test system: sensitized and allergen-challenged mice; assay: Aminophylline on acute airway effects of nadolol; format: in vivo; conditions: 100 mg/kg i.p. during methacholine infusion; untreated and nadolol-treated mice
Experimental: Mice were sensitized to the allergen ovalbumin as described in Example 1.
At time point 1 (time=−10 min) baseline airway resistance of the mice was determined. At time point 2 (time=−5 min) methacholine was infused into mice to reach their EC70.

[6] = in vivo; cited from earlier work
β2 = conditions: read-out: K1 values for β2 (first value); cited from earlier work
β3 = β3 (Homo sapiens, UniProt P13945); conditions: read-out: K1 values for β3; cited from earlier work
[7] = healthy volunteers; after 9 d of treatment versus first treatment day; cited from earlier work
[8] = long-term administration; cited from earlier work
[9] = in humans, in the presence of nadolol; cited from earlier work
[10] = acute: single intravenous bolus 15 minutes before methacholine
[11] = chronic administration, 28 days (in chow; salbutamol by osmotic minipump)

β2-adrenergic receptor, sequence (P18762 whole entry): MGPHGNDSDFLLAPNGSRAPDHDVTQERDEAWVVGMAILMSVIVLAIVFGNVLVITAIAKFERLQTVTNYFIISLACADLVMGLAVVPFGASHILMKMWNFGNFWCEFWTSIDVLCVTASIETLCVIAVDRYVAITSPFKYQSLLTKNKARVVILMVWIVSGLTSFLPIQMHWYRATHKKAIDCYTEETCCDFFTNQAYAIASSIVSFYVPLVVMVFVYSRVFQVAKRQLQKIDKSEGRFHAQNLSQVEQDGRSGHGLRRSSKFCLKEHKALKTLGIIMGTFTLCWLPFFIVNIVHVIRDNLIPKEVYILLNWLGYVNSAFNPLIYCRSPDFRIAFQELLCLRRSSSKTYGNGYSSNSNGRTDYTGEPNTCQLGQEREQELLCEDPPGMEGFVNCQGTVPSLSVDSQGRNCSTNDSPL
β3, sequence (P13945 whole entry): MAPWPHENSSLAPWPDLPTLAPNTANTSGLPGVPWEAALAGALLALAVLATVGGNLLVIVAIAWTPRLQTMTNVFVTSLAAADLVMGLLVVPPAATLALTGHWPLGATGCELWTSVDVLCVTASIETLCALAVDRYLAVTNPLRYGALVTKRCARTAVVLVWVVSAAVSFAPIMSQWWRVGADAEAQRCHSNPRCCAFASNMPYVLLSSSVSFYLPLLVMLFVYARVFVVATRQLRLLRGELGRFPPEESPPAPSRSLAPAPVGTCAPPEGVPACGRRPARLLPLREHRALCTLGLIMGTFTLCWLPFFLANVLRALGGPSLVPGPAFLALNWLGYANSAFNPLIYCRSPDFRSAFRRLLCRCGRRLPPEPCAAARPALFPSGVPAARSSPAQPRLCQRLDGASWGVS

## CC(C)(C)NCC(O)c1cc(O)cc(O)c1 (stereo not shown) [terbutaline]
[1]; from an MDI
  increase of bioavailability by the oral component: 6.7%
[1]; healthy smokers versus healthy nonsmokers
  absorption through the lung: more rapidly

## CC(C)NC[C@@H](O)COc1cccc2ccccc12 [D-propranolol]
β-adrenergic receptor
  activity with respect to β-adrenergic receptors: inactive
[2]
  antigen-induced bronchoconstriction and airway hyperresponsiveness: beneficial in inhibiting antigen-induced bronchoconstriction and reducing airway hyperresponsiveness

## COCCc1ccc(OCC(O)CNC(C)C)cc1 (stereo not shown) [metoprolol]
Asthmatic mice
  airway hyperresponsiveness: effective in reducing airway hyperresponsiveness
Patients with CHF
  clinical outcome (mortality, benefit over placebo): significant mortality reduction

## C[C@@H]1C[C@H]2[C@@H]3C[C@H](F)C4=CC(=O)C=C[C@]4(C)[C@@]3(F)[C@@H](O)C[C@]2(C)[C@@]1(O)C(=O)SCF [fluticasone]
[3]; in vivo
  first-pass hepatic metabolism of the systemically absorbed drug: almost complete

## C=CCc1ccccc1OCC(O)CNC(C)C (stereo not shown) [Alprenolol, alprenolol]
Asthmatic mice; 15 minutes of administration
  Decreased Raw: yes
Asthmatic mice; 2 days of administration
  Decreased Raw: no
Asthmatic mice; 28 days of administration
  Decreased Raw: no
Asthmatic mice; [10]
  airway responsiveness to methacholine provocation (airway resistance, Raw): airway responsiveness was diminished
Asthmatic mice; [11]
  airway responsiveness to methacholine provocation (airway resistance, Raw): does not reduce airway hyperresponsiveness; also recorded: provides no benefit upon chronic administration
β2-adrenergic receptor; 15 minutes of administration
  Increased β2AR density: yes
β2-adrenergic receptor; 2 days of administration
  Increased β2AR density: no
β2-adrenergic receptor; 28 days of administration
  Increased β2AR density: no
β2-adrenergic receptor
  level of the β2-adrenergic receptor: slight decrease
  Bmax (receptor density): 299.5 ± 12.19 femtomoles of sites per milligram of protein
  βmax (receptor density): 179.2 ± 53.05 femtomoles of sites per milligram of protein
[4]
  rank of effectiveness on contraction of excised tracheas in response to methacholine: most effective

## Cn1c(=O)c2[nH]cnc2n(C)c1=O [aminophylline]
[5]
  airway resistance after administration: significant and sustained drop in airway resistance

## CC(C)(C)NCC(O)c1ccc(O)c(CO)c1 (stereo not shown) [Salbutamol, salbutamol]
Asthmatic mice; 15 minutes of administration
  Decreased Raw: yes
Asthmatic mice; 2 days of administration
  Decreased Raw: no
Asthmatic mice; 28 days of administration
  Decreased Raw: no
Asthmatic mice; [10]
  airway responsiveness to methacholine provocation (airway resistance, Raw): reduced the level of airway responsiveness to methacholine provocation
Asthmatic mice; [11]
  airway responsiveness to methacholine provocation (airway resistance, Raw): no protection was observed
β2-adrenergic receptor; 15 minutes of administration
  Increased β2AR density: yes
β2-adrenergic receptor; 2 days of administration
  Increased β2AR density: no
β2-adrenergic receptor; 28 days of administration
  Increased β2AR density: no
β2-adrenergic receptor
  level of the β2-adrenergic receptor: slight decrease
  Bmax (receptor density): 256.5 ± 29.24 femtomoles of sites per milligram of protein
  βmax (receptor density): 97.0 ± 23.02 femtomoles of sites per milligram of protein
[1]; 10 patients with cystic fibrosis versus healthy adults
  bioavailability of inhaled drug: greater

## Cc1ccc(Cl)c(OCC(O)CNC(C)(C)C)c1 (stereo not shown) [bupranolol]
[6]
  half-life: 1.5 h
β2
  Ki: 0.0017 µM
β3
  Ki: 0.05 µM

## CCCC1O[C@@H]2C[C@H]3[C@@H]4CCC5=CC(=O)C=C[C@]5(C)[C@H]4[C@@H](O)C[C@]3(C)[C@]2(C(=O)CO)O1 (stereo partly shown) [budesonide]
[3]; 6 children with asthma versus 11 healthy adults
  plasma clearance of the 2 enantiomers per kilogram of bodyweight, higher in children than adults: about 50%
[3]; in vivo
  plasma clearance relative to the average clearance of prednisolone: about 10 fold
  systemic availability of the swallowed fraction: 10.7±4.3%

## O=S(=O)(Nc1ccc(CCNC[C@H](O)c2cccnc2)cc1)c1ccc(-c2nc(-c3ccc(C(F)(F)F)cc3)cs2)cc1 [L-796568]
[7]
  acute increases in plasma fatty acid concentrations: completely absent after 9 d of treatment

## Cc1ccc(OCC(O)C(C)NC(C)C)c2c1CCC2 (stereo not shown) [ICI-118,551]
[4]
  rank of effectiveness on contraction of excised tracheas in response to methacholine: then ICI-118,551

## CC(C)(C)NC[C@H](O)COc1nsnc1N1CCOCC1 [timolol]
Asthmatic mice
  airway hyperresponsiveness: effective in reducing airway hyperresponsiveness

## OCc1cc(C(O)CNCCCCCCOCCCCc2ccccc2)ccc1O (stereo not shown) [salmeterol]
[1]; in vivo
  time in which the majority of a dose is eliminated, predominantly in the feces: ≤ 72 h
[8]
  trial outcome (death rates): stopped due to increased death rates

## CC(C)NC[C@H](O)COc1cccc2ccccc12 [L-form of propranolol, propranolol]
[2]
  specific lung resistance: increased specific lung resistance

## CC(C)(Cc1c[nH]c2ccccc12)NCC(O)COc1ccccc1C#N (stereo not shown) [Bucindolol, bucindolol]
Patients with CHF
  clinical outcome (mortality, benefit over placebo): failed to demonstrate any benefit over placebo

## CN[C@@H](C)[C@H](O)c1ccccc1 [ephedrine]
[9]
  level of thermogenesis relative to the ephedrine-untreated level: 40%
